# Source: patent publication US11160794B2, “Methods for treating congenital disorders of glycosylation” (Maggie's Pearl, LLC, priority 2018, dated 2021)
# Where a name gives a salt, the structure may show the parent alone.
# Test system: SEC53 variant (pmm2 mutant) yeast
# Experiment: Yeast growth rescue of SEC53 variant strains (validation of drug screen hits)
# Format: cell-based
# Details: haploid and heterozygous diploid cells; dose response
# Experimental: All strains used herein are in S288c background. Strains were grown in Synthetic Complete (“SC”) or SC drop out media (Sunrise)+2% dextrose at 30° C. unless otherwise noted. Standard genetic procedures of transformation and tetrad analysis were followed to construct strains. SEC53 rescue plasmid (pPL1) was generated by cloning the SEC53 promoter, open reading frame, and terminator sequences into the episomal pRS316 containing the URA3 selectable marker. SEC53 variants were generated by cloning the relevant promoter, GFP or SEC53 gene, and CYC1 terminator sequences into an integrating plasmid containing the LEU2 selectable marker and integrated at the SwaI restriction site into the HO locus. For PMM2 variants, the SEC53 ORF was replaced with a codon-optimized PMM2. Plasmids were generated by Next Interactions or GenScript. Strains were generated by Next Interactions or well-known techniques.
# Cells from plates were resuspended in SC media to OD600=1.0, then serial diluted into 50 μL SC+FOA media in 384-well plates at 10^−1, 10^−2, and 10^−3. Plates were incubated at 30° C. and absorbance reading at […] were measured by a plate reader (Molecular Devices SpectraMax M3) at the indicated time points. Plates were vortexed briefly to resuspend cells prior to plate readings. 5-floroortic acid was purchased from US Biological and used at a concentration of 1 mg/L.
# 125 nL of compounds or DMSO were dispensed into 384-well plates using the Echo acoustic dispenser (LabCyte) to achieve a final concentration of 25 μM. 50 μL of 10^−2 dilution of an OD600=1.0 or 0.5 yeast cell suspensions were dispensed into the 384-well plates containing compounds or DMSO with a MultiFlo automated dispenser (Biotek). Plates were covered and incubated at 30° C. for 16-21 hours until OD600 reaches ˜0.8. Plates were vortexed briefly to resuspend cells prior to reading.
# MicroSource Spectrum compounds were reordered from MicroSource Discovery Systems and resuspended in DMSO. 5-125 nL compounds or DMSO were dispensed into 384-well plates and 50 μL of yeast cell suspensions or media were dispensed by multichannel pipettes to achieve the desired concentration. Plates were covered and incubated at 30° C. for 16-23 hours until OD600 reaches ˜0.8. Plates were vortexed briefly to resuspend cells prior to plate readings.
# pACT1-F126L, pSEC53-V238M, and pSEC53-F126L haploids and pACT1-F126L/pACT1-R148H, pSEC53-V238M/pSEC53-R148H, and pSEC53-F126L/pSEC53-R148H heterozygous diploids were advanced to a high-throughput drug screen. Screening was done in a 2,560 compound MicroSource Spectrum library collection consisting of FDA approved drugs, bioactive tool compounds, and natural products. Each strain was screened in duplicate and in 384-well plates, with each plate containing 32 wells of the negative control (no drugs) and 24 wells of the positive controls (wild type cells). […] Additionally, there is good correlation between replicates (correlation >0.4 for all panels). With a Z-score cutoff of 2.0, we initially identified six compounds that may be promising and their ability to rescue growth is conserved between the haploid and diploid strains.
# These initial hits were further studied for validation. […] At the maximum dose tested, alpha-cyano-4-hydroxycinnamic acid (Compound 1) rescues the F126L allele by 17.7% in haploid and 24.5% in diploid cells.
row,SMILES,rescue of growth of SEC53 alleles
1,"Cc1ccc(C(=O)Nc2ccc(S(=O)(=O)O)c3cc(S(=O)(=O)O)cc(S(=O)(=O)O)c23)cc1NC(=O)c1cccc(NC(=O)Nc2cccc(C(=O)Nc3cc(C(=O)Nc4ccc(S(=O)(=O)O)c5cc(S(=O)(=O)O)cc(S(=O)(=O)O)c45)ccc3C)c2)c1 [Compound 3, 8-[[4-methyl-3-[[3-[[3-[[2-methyl-5-[(4,6,8-trisulfonaphthalen-1-yl)carbamoyl]phenyl]carbamoyl]phenyl]carbamoylamino]benzoyl]amino]benzoyl]amino]naphth alene-1,3,5-trisulfonic acid]",consistent and dose-dependent rescues
2,"NCCS [cysteamine hydrochloride, reference compound]",does not rescue at any dose

# Test system: pmm-2 F125L/F125L worms
# Experiment: Bortezomib-induced growth suppression rescue screen in pmm-2 F125L worms
# Format: in vivo, nematode (worms)
# Details: 25 μM drug, 11 μM Bzb, 5 days; one row per replicate
# Text: A F119L point mutation strain, orthologous F125L in worms was created.
# Because an underlying defect in glycosylation may be manifested when subjected to external chemical stressors, Pmm-2 F119L homozygous animals were subjected to Tunicamycin and Bortezomib drug exposures. Tunicamycin is an inhibitor of N-linked glycosylation and Bortezomib (Bzb) is an irreversible inhibitor of the proteasome. It was contemplated that either or both drugs would affect the Pmm-2 mutants differently compared to wild type (“WT”).
# Thus, Bzb-induced growth suppression was used as a means to identify compounds that might rescue the global effects of exacerbated glycosylation deficiency. Using this approach, animals were age-synchronized to obtain L1 larvae. Fifteen L1 larvae were dispensed into wells of a 384-well plate containing 25 μM of drugs (obtained from the MicroSource Spectrum library purchased from MicroSource Discovery Systems) and 11 μM Bzb. Bacterial media at fixed optical density was added to wells to enable worms to grow for a 5 day period. Animals were dispensed using Biosorter, a large particle flow cytometer by Union Biometrica, Mass. At the end of the 5 day period, animals were treated with 15 μls of 8 mM sodium azide (for 55 μls of total assay volume). After 20 minutes, immobilized animals were imaged using a plate imager under transmitted light. A custom image processing script was used to extract the areas occupied by worms/well over a 5 day period. Each plate has positive controls (no Bzb) and negative controls (11 μM Bzb) that was used to determine the z score of test wells per plate. After outlier correction for each plate in each replicate, data from all three replicates was compared. Wells per plate with positive z scores greater than 2 were identified as “hits.” If hits reproduced across all three replicates were then compared. […] At least 13 of the 20 compounds belong to the category of antioxidants; still others fall in the category of catecholamines
row,SMILES,Status
1,"O=c1oc2c(O)c(O)cc3c(=O)oc4c(O)c(O)cc1c4c23 [ELLAGIC ACID, ellagic acid]",HIT (Wells per plate with positive z scores greater than 2 were identified as “hits.”)
2,"COc1cc(OC)c2c(=O)c(O)c(-c3ccc(OC)c(OC)c3)oc2c1 [QUERCETIN 5,7,3,4′-TETRAMETHYL ETHER, quercetin 5,7,3′,4′-tetramethyl ether]",HIT (Wells per plate with positive z scores greater than 2 were identified as “hits.”)
3,"O=C(O)c1cc(O)c(=O)c2c(O)c(O)c(O)cc2c1 [PURPUROGALLIN-4-CARBOXYLIC ACID, purpurogallin-4-carboxylic acid]",HIT (Wells per plate with positive z scores greater than 2 were identified as “hits.”)
4,O=c1c(O)cccc2ccc(O)c(O)c12,HIT (Wells per plate with positive z scores greater than 2 were identified as “hits.”)
5,"CC(CCc1ccc(O)cc1)NCCc1ccc(O)c(O)c1 (stereo not shown) [DOBUTAMINE HYDROCHLORIDE, dobutamine hydrochloride, reference compound]",HIT (Wells per plate with positive z scores greater than 2 were identified as “hits.”)
6,"COc1ccc(C(=O)c2ccc(O)cc2)c(O)c1O [2,3,4′-TRIHYDROXY-4-METHOXYBENZOPHENONE, 2,3,4′-trihydroxy-4-methoxybenzophenone]",HIT (Wells per plate with positive z scores greater than 2 were identified as “hits.”)
7,"COc1cccc(O)c1O [3-METHOXYCATECHOL, 3-methoxycatechol]",HIT (Wells per plate with positive z scores greater than 2 were identified as “hits.”)
8,"COc1ccc(-c2coc3cc(O)ccc3c2=O)c(O)c1O [KOPARIN, koparin]",HIT (Wells per plate with positive z scores greater than 2 were identified as “hits.”)
9,"O=C(O[C@@H]1Cc2c(O)cc(O)cc2O[C@@H]1c1cc(O)c(=O)c2c(O)c(O)cc([C@H]3Oc4cc(O)cc(O)c4C[C@H]3O)c2c1)c1cc(O)c(O)c(O)c1 [THEAFLAVIN MONOGALLATES, theaflavin monogallate]",HIT (Wells per plate with positive z scores greater than 2 were identified as “hits.”)
10,"O=c1cc(-c2ccccc2)oc2cc(O)c(O)c(O)c12 [BAICALEIN, baicalein]",HIT (Wells per plate with positive z scores greater than 2 were identified as “hits.”)
11,"COc1cc(O)c2c(=O)c(O)c(-c3ccc(O)c(O)c3)oc2c1 [RHAMNETIN, rhamnetin]",HIT (Wells per plate with positive z scores greater than 2 were identified as “hits.”)
12,"Nc1ccc(O)c(N)c1 [AMIDOL DIHYDROCHLORIDE, amidol dihydrochloride]",HIT (Wells per plate with positive z scores greater than 2 were identified as “hits.”)
13,"N[C@@H](Cc1ccc(O)c(O)c1)C(=O)O [LEVODOPA, levodopa, reference compound]",HIT (Wells per plate with positive z scores greater than 2 were identified as “hits.”)
14,"CCC(N)C(O)c1ccc(O)c(O)c1 (stereo not shown) [ETHYLNOREPINEPHRINE HYDROCHLORIDE, ethylnorepinephrine hydrochoride, reference compound]",HIT (Wells per plate with positive z scores greater than 2 were identified as “hits.”)
15,"O=c1c(O)c(-c2ccc(O)c(O)c2)oc2c(O)c(O)cc(O)c12 [GOSSYPETIN, gossypetin]",HIT (Wells per plate with positive z scores greater than 2 were identified as “hits.”)
16,"CC1=NN(c2ccccc2)C(=O)C1 [EDARAVONE, edaravone, reference compound]",HIT (Wells per plate with positive z scores greater than 2 were identified as “hits.”)
17,"O=c1cc(-c2cc(O)c(O)c(O)c2)oc2cc(O)cc(O)c12 [HIERACIN, hieracin]",HIT (Wells per plate with positive z scores greater than 2 were identified as “hits.”)
18,"O=C(O[C@@H]1Cc2c(O)cc(O)cc2O[C@@H]1c1ccc(O)c(O)c1)c1cc(O)c(O)c(O)c1 [EPICATECHIN MONOGALLATE, epicatechin monogallate]",HIT (Wells per plate with positive z scores greater than 2 were identified as “hits.”)
19,"CCOc1cccc(C(=O)c2ccc(O)c(O)c2O)c1 [3,4-didesmethyl-5-deshydroxy-3′-ethoxyscleroin]",HIT (Wells per plate with positive z scores greater than 2 were identified as “hits.”)
20,"O=c1c(O)c(-c2ccc(O)c(O)c2)oc2cc(O)ccc12 [FISETIN, fisetin]",HIT (Wells per plate with positive z scores greater than 2 were identified as “hits.”)
